Data set [1] concerns CFPAC-1 pancreatic cancer cells. Put plainly: MTT proliferation assay, CFPAC-1. Format: cell-based. The note with it: Homo sapiens; CFPAC-1, MTT, 72 h. The method, then:
(§1) The pancreatic cancer cell lines, including MIAPaCa-2, PANC 1, CAPAN-2 and CFPAC-1 were a generous gift from Prof. Andrew Biankin (Garvan Institute, NSW, Australia). The MIAPaCa-2, PANC 1 and CFPAC-1 cell lines were grown in DMEM medium (Invitrogen) and CAPAN-2 cells were grown in McCoy's medium (Invitrogen). All media was supplemented with 10% (v/v) fetal calf serum (Invitrogen), 1% (v/v) non-essential amino acids (Invitrogen), 1% (v/v) sodium pyruvate (Invitrogen), 2 mM L-glutamine (Invitrogen), 100 μg/mL of streptomycin (Invitrogen), 100 U/ml penicillin (Invitrogen), and 0.28 μg/mL of fungizone.
(§2) To further examine the spectrum of anti-proliferative activity, Dp4cycH4mT was tested against pancreatic cancer in vitro, performing MTT proliferation assays with PANC 1, MIAPaCa-2, CFPAC-1 and CAPAN-2 pancreatic cancer cells. As a comparison, currently used treatments for pancreatic cancer including gemcitabine and 5-fluorouracil were also tested. The iron chelator, DFO, was included as a positive control.
(§3) Table 2A. Anti-proliferative activity of Dp4cycH4mT against pancreatic cancer cell lines. Growth and antiproliferative activity IC50 (μM) values of Dp4cycH4mT in a variety of pancreatic cell lines and in comparison to DFO and the clinically used drugs gemcitabine and 5-fluorouracil as determined by the MTT assay. Cells were seeded and allowed to attach to wells for 24 h and then incubated for 72 h at 37° C. with control medium or the chelators. Results are mean±SD (3 experiments).
(§4) Table 2B. Anti-proliferative activity of Dp4cycH4mT against pancreatic cancer cell lines. IC90 (μM) values of Dp4cycH4mT in a variety of pancreatic cell lines and in comparison to DFO and the clinically used drugs gemcitabine and 5-fluorouracil as determined by the MTT assay. Cells were seeded and allowed to attach to wells for 24 h and then incubated for 72 h at 37° C. with control medium or the chelators. Results are mean±SD (3 experiments).

The subject of data set [2] is SK-N-MC neuroepithelioma cells. The data set is described as follows: Iron uptake assay (59Fe uptake from 59Fe-transferrin). It counts as cell-based, human. The note with it: 25 μM chelator, 3 h at 37° C., 59Fe-Tf. The method, then:
Cells were cultured in the same way as for the iron efflux experiments. […] At the end of the incubation the culture dishes were placed on ice, the media aspirated, and the cells washed 4 times with ice cold PBS. Protease (1 mL; 1 mg/mL; Sigma-Aldrich, NSW, Australia) solution was added to each plate and allowed to incubate on ice for 30 min. This facilitated the removal of membrane bound ^59Fe-Tf. Cells were then scraped from the plastic surface using a Teflon spatula and collected in Eppendorf tubes. These were centrifuged at 10000 rpm and 4° C. for 3 min. The supernatant was then transferred into counting tubes and the cell pellet resuspended in PBS before also being transferred into another set of counting tubes. Radioactivity was measured using a Wallac Wizard 3″ Gamma Counter (PerkinElmer, MA, USA). Results are expressed as average ^59Fe content of the cellular fraction as a percentage of the control value.

For data set [3], the system named is CAPAN-2 pancreatic cancer cells. The data set is described as follows: MTT proliferation assay, CAPAN-2. It counts as cell-based. To be noted: Homo sapiens; CAPAN-2, MTT, 72 h. The method, then:
as §1, §2, §3, §4
On the technique in general: Tetrazolium dyes change colour on reduction, which living cells bring about.

The subject of data set [4] is SK-N-MC neuroepithelioma cell line. The data set is described as follows: MTT anti-proliferative assay in SK-N-MC cells. Format: cell-based, human. The note with it: Homo sapiens, 72 h at 37° C., mean±SD (3 experiments). The protocol: The cells were maintained in minimum essential media (MEM; Invitrogen, CA, USA) which contained 10% fetal calf serum (FCS; JRH Biosciences, Kansas, USA), 1% non-essential amino acids (Gibco, Victoria, Australia), 1% penicillin/streptomycin/glutamine (Gibco, VIC, Australia) and fungizone ([…]; Squibb Pharmaceuticals, Montreal, Canada).
The ability of the compounds to inhibit cellular proliferation was assessed initially in SK-N-MC cells by the MTT assay.
Table 1. […] Cells were seed and allowed to attach to wells for 24 h and then incubated for 72 h at 37° C. with control medium or the chelators.

A further data set concerns methemoglobin (metHb). The data set is described as follows: metHb formation in vivo. Also on record: species or system C57BL6 mice. To be noted: 6 mg/kg intravenously, blood taken after 30 min. The protocol:
FIG. 13. Effect of thiosemicarbazone chelators on metHb-formation in vivo. MetHb after Dp44mT, Triapine® or Dp4cycH4mT treatment in vivo at a dose of 6 mg/kg administered intravenously via the tail vein. Mice in the control group were treated with vehicle alone. At 30 minutes post-administration, whole blood was collected for determination of metHb levels.
The levels of metHb and metMb in RBC lysates were determined using a Shimadzu UV-Vis spectrophotometer (UV-1800; Shimadzu Corporation, Kyoto, Japan) at 577 nm and 630 nm for metHb and metMb in accordance with published methods (Winterbourn CC and Carrell R W (1977). Biochem J 165: 141-148).
C57BL6 mice (7-8 weeks-old) were used under a protocol approved by the university of Sydney Animal Ethics Committee. Dp44mT, Triapine® or Dp4cycH4mT (all at 6 mg/kg) were dissolved in 30% propylene glycol/saline and administered iv via the tail vein. Subsequently, 30 min after administration, mice were anesthetized with isoflurane and blood samples obtained by cardiac puncture. Blood samples were lysed with 2.5 volumes of ultrapure water for metHb estimation. Mice were sacrificed with isoflurane, the heart exhaustively perfused with HBSS and Mb isolated.

A short description of data set [5]: PANC 1 xenograft study: body and organ weights, haematology, histopathology.

For orientation: IC50 means the concentration needed to halve the response being measured. High values mean a need for much substance, low ones inhibition by little substance. By IC90 is commonly meant the concentration at which the effect reaches the 90% level. Take `CN(C(=S)NN=C(c1ccccn1)c1ccccn1)C1CCCCC1` [Dp4cycH4mT, di-2-pyridylketone 4-cyclohexyl-4-methyl-3-thiosemicarbazone]: in data set [1], inhibition was half-maximal at 400 ± 200 nM (IC50) and the IC90 worked out at 5400 ± 1100 nM. In addition, in data set [2], the “cellular 59Fe uptake (% of the control)” value came out at 21%. Further, in data set [3], inhibition was half-maximal at 40 ± 8 nM (IC50) and the IC90 is > 5000 nM. This compound also showed an IC50 in data set [4] of 13 nM. Besides, the “metHb (% of total Hb)” value in the data set with methemoglobin (metHb) is given as “comparable to the control”. In data set [5] (Dp4cycH4mT 5 mg/kg/day), the HCT is on record as 0.41 ± 0.01, the Hb is 131.88 ± 4.31 g/L, the Platelets was 1283 ± 160 10^9/L and the RBC was 9.46 ± 0.31 × 10^12/L. Besides, in data set [5] (Dp4cycH4mT 5 mg/kg/day), the Reticulocytes is given as 0.77 ± 0.08 × 10^12/L and the WBC was 3.5 ± 0.34 × 10^9/L. In data set [5] (Dp4cycH4mT 5 mg/kg/day i.v.), the “Body weight loss (% initial weight)” value is reported as 88.0 ± 6.5 % initial weight, the Brain weight amounted to 0.30 ± 0.01 g, the Heart weight came to 0.09 ± 0.01 g and the Kidney weight came to 0.17 ± 0.02 g. Moreover, in data set [5] (Dp4cycH4mT 5 mg/kg/day i.v.), the Liver weight stood at 0.80 ± 0.03 g and the Spleen weight is listed as 0.08 ± 0.01 g.

(Values after patent publication US8927580B2, “Thiosemicarbazone compounds and use in the treatment of cancer” (Oncochel Therapeutics LLC, priority 2010, dated 2015).)
